Molecular target: T1, recombinant human Cathepsin K (Homo sapiens, UniProt P43235)
T1 sequence (P43235 115-329): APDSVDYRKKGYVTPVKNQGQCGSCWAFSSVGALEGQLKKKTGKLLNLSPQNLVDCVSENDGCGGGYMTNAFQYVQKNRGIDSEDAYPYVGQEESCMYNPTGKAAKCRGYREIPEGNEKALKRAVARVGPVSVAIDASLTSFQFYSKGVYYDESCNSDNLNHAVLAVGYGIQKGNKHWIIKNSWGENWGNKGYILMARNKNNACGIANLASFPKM
Test: Cathepsin K activity: inhibition of recombinant human Cathepsin K (fluorogenic substrate Z-Phe-Arg-AMC)
Assay type: biochemical
Conditions: sodium acetate pH5.5, fluorescence at 10 minutes, read-out: pIC50 (negative logarithm of the IC50 concentration) for inhibition of human cathepsin K (converted)
Procedure: 10µl of a 1mg/l solution of activated recombinant human cathepsin K, in assay buffer, is then added to the well, yielding a final inhibitor concentration of 10µM. • Enzyme activity is determined by measuring the fluorescence of the liberated aminomethylcoumarin at […] using 390nm excitation, at 10 minutes. Percentage enzyme activity is calculated by comparison of this activity to that of a solution containing no inhibitor. Compounds are subsequently subjected to a dose response curve analysis in order to determine IC50 values for active compounds (where IC50 is the concentration of test compound causing 50 % inhibition of the enzymatic activity). Compounds of the invention typically have a pIC50 (negative logarithm of the IC50 concentration) for inhibition of human cathepsin K of more than 6, preferably more than 7 and most preferably a pIC50 of more than 8, such as for the compounds of Examples 1, 2a, 2b, 3, 5, 6, 8, 12, 14, 13, 16k, 16n, 16o, 17, 22a, 22b, 22c

For `CC(C)N1CCN(c2cc(-c3cccc(C(F)(F)F)c3)nc(C#N)n2)CC1` [Example 3, 4-(4-Isopropyl-piperazin-1-yl)-6-(trifluoromethyl-phenyl)-pyrimidine-2-carbonitrile], the IC50 was under 10 nM.

Reference: EP1928842B1, “4-PHENYL-6-SUBSTITUTED-PYRIMIDINE-2-CARBONITRILE DERIVATIVES” (priority 2005, dated 2007)
